ChEMBL document CHEMBL4800728, “Data for DCP probe JNJ-54119936” (2021)

Columns and labels:
[1] = target: Estrogen receptor beta (Homo sapiens) (UniProt Q92731); test: ERbeta Indigo Bioscience nuclear receptor screen
[2] = target: Platelet-derived growth factor receptor beta (Homo sapiens) (UniProt P09619); test: PDGFRbeta Invitrogen kinase panel; settings: Compound concentration 10.0 uM
[3] = target: 5-hydroxytryptamine receptor 1B (Homo sapiens) (UniProt P28222); settings: Compound concentration 10.0 uM
[4] = target: Nuclear receptor ROR-alpha (Homo sapiens) (UniProt P35398); test: ThermoFluor Binding Assay (RORA)
[5] = target: Alpha-2A adrenergic receptor (Homo sapiens) (UniProt P08913); settings: Compound concentration 10.0 uM
[6] = target: Serine/threonine-protein kinase Chk2 (Homo sapiens) (UniProt O96017); test: CHK2 Invitrogen kinase panel; settings: Compound concentration 10.0 uM
[7] = target: Insulin receptor (Homo sapiens) (UniProt P06213); test: INSR Invitrogen kinase panel; settings: Compound concentration 10.0 uM
Rattus norvegicus = species on record: Rattus norvegicus; settings: Compound concentration 10.0 uM
[8] = target: Sigma intracellular receptor 2 (Homo sapiens, UniProt Q5BJF2); test: GPCRScan assay: inhibition of Sigma 2; set-up: radioligand conc. used [nm] 5.0, parental cells HEKT
[9] = target: Aurora kinase A (Homo sapiens) (UniProt O14965); test: Aurora_A Invitrogen kinase panel; settings: Compound concentration 10.0 uM
[10] = target: Serine/threonine-protein kinase PLK1 (Homo sapiens) (UniProt P53350); test: Plk1 Invitrogen kinase panel; settings: Compound concentration 10.0 uM
[11] = target: Peroxisome proliferator-activated receptor gamma (Homo sapiens, UniProt P37231); test: (§1) PPARgamma In-house nuclear receptor screen
[12] = target: T1, Peroxisome proliferator-activated receptor gamma (Homo sapiens) (UniProt P37231); test: as §1; settings: Compound concentration 3.0 uM
T1 sequence (whole entry): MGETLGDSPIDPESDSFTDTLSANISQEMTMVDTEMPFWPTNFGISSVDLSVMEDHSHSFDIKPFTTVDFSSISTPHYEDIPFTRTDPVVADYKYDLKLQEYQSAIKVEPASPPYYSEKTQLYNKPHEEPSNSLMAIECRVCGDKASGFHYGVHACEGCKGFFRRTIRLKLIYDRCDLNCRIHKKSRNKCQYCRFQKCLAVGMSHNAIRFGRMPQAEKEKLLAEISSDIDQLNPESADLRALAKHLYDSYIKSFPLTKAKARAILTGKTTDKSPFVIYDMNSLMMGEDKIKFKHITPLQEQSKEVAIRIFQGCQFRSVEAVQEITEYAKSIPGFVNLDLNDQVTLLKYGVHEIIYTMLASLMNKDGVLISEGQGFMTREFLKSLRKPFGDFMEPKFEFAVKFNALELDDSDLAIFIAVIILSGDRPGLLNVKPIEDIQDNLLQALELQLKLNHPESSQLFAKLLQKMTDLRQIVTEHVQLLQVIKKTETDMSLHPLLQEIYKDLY

[13] = target: Muscarinic acetylcholine receptor M4 (Homo sapiens) (UniProt P08173); settings: Compound concentration 10.0 uM
[14] = target: Serotonin 3 (5-HT3) receptor (Homo sapiens) (UniProt P46098+A5X5Y0+O95264+Q70Z44+Q8WXA8); test: 5-HT3 (h) CEREP screen; type: protein-complex assay; settings: Compound concentration 10.0 uM
[15] = target: Vitamin D3 receptor (Homo sapiens) (UniProt P11473); test: VDR Indigo Bioscience nuclear receptor screen
[16] = target: Insulin-like growth factor 1 receptor (Homo sapiens) (UniProt P08069); test: IGF-1R Invitrogen kinase panel; settings: Compound concentration 10.0 uM
[17] = target: Adenosine receptor A3 (Homo sapiens) (UniProt P0DMS8); test: A3 (h) CEREP screen
[18] = target: 5-hydroxytryptamine receptor 5A (Homo sapiens) (UniProt P47898); test: 5-HT5A (h) CEREP screen
[19] = target: Sodium-dependent serotonin transporter (Homo sapiens) (UniProt P31645); test: 5-HT transporter (h) CEREP screen; settings: Compound concentration 10.0 uM
[20] = target: D(3) dopamine receptor (Homo sapiens) (UniProt P35462); settings: Compound concentration 10.0 uM
[21] = target: Tyrosine-protein kinase JAK3 (Homo sapiens) (UniProt P52333); test: JAK3 Invitrogen kinase panel; settings: Compound concentration 10.0 uM
[22] = target: Casein kinase II subunit alpha' (Homo sapiens) (UniProt P19784); test: CK2alpha2 Invitrogen kinase panel; settings: Compound concentration 10.0 uM
[23] = target: Histamine H2 receptor (Homo sapiens) (UniProt P25021); settings: Compound concentration 10.0 uM
[24] = target: Sodium-dependent serotonin transporter (Homo sapiens) (UniProt P31645); settings: Compound concentration 10.0 uM
[25] = target: Histamine H3 receptor (Homo sapiens) (UniProt Q9Y5N1); settings: Compound concentration 10.0 uM
[26] = target: Sodium-dependent noradrenaline transporter (Homo sapiens) (UniProt P23975); test: norepinephrine transporter (h) CEREP screen
[27] = target: voltage-dependent K+ channel (Homo sapiens, UniProt O43525+O43526+O95259+P16389+P17658+P22001+P22459+P22460+P48547+P51787+P56696+Q03721+Q09470+Q12809+Q14003+Q14721+Q16322+Q6PIU1+Q8NCM2+Q8TAE7+Q8TDN1+Q8TDN2+Q92953+Q96KK3+Q96L42+Q96PR1+Q96RP8+Q9BQ31+Q9H252+Q9H3M0+Q9NR82+Q9NS40+Q9NSA2+Q9NZV8+Q9UIX4+Q9UJ96+Q9UK17+Q9ULD8+Q9ULS6+Q9UQ05); test: K+ channel (Volt-dependent) CEREP screen; type: protein assay; settings: compound concentration 10 uM
[28] = target: Alpha-2B adrenergic receptor (Homo sapiens) (UniProt P18089); settings: Compound concentration 10.0 uM
[29] = target: Sigma non-opioid intracellular receptor 1 (Homo sapiens, UniProt Q99720); settings: Compound concentration 10.0 uM
[30] = target: Proto-oncogene tyrosine-protein kinase receptor Ret (Homo sapiens) (UniProt P07949); test: Ret Invitrogen kinase panel; settings: Compound concentration 10.0 uM
[31] = target: Peroxisome proliferator-activated receptor alpha (Homo sapiens) (UniProt Q07869); test: PPARalpha Indigo Bioscience nuclear receptor screen; settings: Compound concentration 0.3 uM
[32] = target: Delta-type opioid receptor (Homo sapiens) (UniProt P41143); test: Delta2 (h) CEREP screen; settings: Compound concentration 10.0 uM
[33] = target: Kappa-type opioid receptor (Homo sapiens) (UniProt P41145); test: Kappa (KOP) (h) CEREP screen; settings: Compound concentration 10.0 uM

Sequence of Estrogen receptor beta (Homo sapiens) (Q92731 whole entry): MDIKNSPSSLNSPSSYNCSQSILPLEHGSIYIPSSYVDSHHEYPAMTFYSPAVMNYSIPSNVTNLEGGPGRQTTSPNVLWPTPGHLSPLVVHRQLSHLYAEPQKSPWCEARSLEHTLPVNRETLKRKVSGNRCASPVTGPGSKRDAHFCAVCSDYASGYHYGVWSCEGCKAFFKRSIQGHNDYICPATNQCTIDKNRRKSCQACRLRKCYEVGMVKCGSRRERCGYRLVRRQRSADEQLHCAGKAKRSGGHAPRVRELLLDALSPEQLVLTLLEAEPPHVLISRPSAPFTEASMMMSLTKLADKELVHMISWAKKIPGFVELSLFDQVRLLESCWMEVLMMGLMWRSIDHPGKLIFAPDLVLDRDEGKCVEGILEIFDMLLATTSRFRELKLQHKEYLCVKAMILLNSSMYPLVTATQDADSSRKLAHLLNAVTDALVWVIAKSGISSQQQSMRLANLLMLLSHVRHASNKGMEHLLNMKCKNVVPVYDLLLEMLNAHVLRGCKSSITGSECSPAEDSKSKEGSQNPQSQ
Sequence of 5-hydroxytryptamine receptor 5A (Homo sapiens) (P47898 whole entry): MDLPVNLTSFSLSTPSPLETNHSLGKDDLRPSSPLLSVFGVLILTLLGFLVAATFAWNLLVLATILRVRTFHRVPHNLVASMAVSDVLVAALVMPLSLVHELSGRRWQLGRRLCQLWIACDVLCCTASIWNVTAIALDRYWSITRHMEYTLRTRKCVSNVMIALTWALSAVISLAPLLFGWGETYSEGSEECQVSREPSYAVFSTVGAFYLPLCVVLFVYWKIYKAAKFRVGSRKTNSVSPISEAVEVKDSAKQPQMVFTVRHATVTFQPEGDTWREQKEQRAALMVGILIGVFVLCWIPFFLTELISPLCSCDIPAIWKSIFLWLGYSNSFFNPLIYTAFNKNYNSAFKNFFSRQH
Sequence of Adenosine receptor A3 (Homo sapiens) (P0DMS8 whole entry): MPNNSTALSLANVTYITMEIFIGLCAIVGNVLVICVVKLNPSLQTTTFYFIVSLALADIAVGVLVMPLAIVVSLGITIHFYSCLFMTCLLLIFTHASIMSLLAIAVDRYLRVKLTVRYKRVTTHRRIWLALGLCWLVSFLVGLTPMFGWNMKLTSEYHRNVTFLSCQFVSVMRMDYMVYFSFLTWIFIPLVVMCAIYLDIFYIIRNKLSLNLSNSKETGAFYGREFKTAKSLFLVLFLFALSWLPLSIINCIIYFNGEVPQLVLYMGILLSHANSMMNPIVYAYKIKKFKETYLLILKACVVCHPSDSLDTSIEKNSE
Sequence of Vitamin D3 receptor (Homo sapiens) (P11473 whole entry): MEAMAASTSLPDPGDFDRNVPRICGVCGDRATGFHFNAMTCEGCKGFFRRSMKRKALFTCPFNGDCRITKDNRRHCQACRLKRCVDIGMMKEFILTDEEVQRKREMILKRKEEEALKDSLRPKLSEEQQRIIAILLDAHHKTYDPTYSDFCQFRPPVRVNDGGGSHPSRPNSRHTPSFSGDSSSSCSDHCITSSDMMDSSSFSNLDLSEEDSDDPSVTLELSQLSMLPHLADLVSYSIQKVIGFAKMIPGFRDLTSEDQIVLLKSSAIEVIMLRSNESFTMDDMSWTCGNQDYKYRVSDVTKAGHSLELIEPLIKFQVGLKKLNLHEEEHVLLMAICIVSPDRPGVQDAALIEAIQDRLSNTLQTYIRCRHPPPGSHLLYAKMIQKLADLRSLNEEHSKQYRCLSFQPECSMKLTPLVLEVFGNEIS
Sequence of Sodium-dependent noradrenaline transporter (Homo sapiens) (P23975 whole entry): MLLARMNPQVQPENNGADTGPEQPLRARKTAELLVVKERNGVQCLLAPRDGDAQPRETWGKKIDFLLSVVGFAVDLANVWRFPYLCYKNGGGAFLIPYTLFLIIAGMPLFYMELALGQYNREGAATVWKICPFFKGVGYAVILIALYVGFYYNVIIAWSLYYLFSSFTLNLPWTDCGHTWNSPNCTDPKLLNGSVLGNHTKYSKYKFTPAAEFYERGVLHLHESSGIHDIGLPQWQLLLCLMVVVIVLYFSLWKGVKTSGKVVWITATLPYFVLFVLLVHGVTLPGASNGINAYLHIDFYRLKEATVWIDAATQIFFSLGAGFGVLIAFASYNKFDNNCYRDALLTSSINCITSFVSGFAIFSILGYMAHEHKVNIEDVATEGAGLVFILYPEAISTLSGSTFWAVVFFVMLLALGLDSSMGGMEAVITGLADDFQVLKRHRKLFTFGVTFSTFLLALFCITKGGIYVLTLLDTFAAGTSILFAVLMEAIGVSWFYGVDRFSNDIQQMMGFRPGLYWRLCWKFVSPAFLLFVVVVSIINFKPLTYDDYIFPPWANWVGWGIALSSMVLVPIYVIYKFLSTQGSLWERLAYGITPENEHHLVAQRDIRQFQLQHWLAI
Sequence of Sodium-dependent serotonin transporter (Homo sapiens) (P31645 whole entry, looked up): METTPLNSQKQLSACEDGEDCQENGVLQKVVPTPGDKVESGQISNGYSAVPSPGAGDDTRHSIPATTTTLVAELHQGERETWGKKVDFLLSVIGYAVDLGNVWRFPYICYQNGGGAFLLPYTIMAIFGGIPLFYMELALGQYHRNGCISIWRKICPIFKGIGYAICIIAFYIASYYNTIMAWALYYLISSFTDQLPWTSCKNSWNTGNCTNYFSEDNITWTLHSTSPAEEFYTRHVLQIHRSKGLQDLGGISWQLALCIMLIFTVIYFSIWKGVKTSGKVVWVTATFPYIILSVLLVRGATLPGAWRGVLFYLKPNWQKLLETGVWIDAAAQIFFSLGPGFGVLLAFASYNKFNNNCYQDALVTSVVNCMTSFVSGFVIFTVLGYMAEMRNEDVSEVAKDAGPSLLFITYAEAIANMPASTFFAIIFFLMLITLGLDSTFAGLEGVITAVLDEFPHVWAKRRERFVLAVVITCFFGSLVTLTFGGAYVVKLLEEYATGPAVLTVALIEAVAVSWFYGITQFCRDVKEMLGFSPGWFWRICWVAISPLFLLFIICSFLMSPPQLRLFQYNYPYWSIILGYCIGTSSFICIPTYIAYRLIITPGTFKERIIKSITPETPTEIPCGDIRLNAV
Sequence of Sigma intracellular receptor 2 (Q5BJF2 whole entry): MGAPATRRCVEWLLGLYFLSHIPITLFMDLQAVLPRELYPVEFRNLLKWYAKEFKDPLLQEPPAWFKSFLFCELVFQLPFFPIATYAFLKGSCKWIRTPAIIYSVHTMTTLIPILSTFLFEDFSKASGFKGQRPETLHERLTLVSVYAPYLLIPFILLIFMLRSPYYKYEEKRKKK
Sequence of Insulin-like growth factor 1 receptor (Homo sapiens) (P08069 31-736 limits assumed): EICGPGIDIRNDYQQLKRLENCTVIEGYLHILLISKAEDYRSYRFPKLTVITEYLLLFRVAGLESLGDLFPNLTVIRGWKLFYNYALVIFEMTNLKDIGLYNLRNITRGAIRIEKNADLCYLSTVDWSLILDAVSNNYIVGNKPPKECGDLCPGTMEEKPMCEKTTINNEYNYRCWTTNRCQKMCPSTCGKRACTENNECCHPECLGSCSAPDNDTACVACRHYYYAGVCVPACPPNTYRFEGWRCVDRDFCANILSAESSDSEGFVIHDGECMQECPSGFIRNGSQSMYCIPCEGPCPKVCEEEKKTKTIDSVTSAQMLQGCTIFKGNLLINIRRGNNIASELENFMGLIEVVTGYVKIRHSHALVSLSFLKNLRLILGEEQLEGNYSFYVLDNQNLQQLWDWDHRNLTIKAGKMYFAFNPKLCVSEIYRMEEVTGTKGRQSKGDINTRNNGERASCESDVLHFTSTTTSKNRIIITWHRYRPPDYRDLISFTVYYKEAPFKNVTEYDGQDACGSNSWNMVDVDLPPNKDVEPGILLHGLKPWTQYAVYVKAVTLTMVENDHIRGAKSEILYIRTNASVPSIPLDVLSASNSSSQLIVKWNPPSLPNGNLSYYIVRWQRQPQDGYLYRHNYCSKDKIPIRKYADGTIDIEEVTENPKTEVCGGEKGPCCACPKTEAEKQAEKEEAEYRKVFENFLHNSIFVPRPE
Sequence of Insulin-like growth factor 1 receptor (Homo sapiens) (P08069 741-1367 limits assumed): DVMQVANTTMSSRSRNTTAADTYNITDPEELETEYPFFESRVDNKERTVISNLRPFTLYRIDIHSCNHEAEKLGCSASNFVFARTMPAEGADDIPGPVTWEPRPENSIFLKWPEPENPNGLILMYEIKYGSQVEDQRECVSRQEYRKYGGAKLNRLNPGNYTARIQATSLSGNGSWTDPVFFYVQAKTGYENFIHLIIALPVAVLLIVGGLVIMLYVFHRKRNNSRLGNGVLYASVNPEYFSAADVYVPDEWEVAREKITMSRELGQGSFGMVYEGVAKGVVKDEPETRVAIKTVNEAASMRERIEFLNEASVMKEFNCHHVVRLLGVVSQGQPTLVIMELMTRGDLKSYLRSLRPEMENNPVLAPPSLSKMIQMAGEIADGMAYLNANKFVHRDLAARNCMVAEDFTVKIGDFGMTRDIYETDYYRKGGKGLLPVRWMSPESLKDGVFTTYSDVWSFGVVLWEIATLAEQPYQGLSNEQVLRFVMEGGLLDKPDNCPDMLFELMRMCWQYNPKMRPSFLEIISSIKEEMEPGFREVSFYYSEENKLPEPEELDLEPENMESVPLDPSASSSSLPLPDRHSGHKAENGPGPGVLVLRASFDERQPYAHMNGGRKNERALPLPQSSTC
Sequence of Peroxisome proliferator-activated receptor alpha (Homo sapiens) (Q07869 whole entry): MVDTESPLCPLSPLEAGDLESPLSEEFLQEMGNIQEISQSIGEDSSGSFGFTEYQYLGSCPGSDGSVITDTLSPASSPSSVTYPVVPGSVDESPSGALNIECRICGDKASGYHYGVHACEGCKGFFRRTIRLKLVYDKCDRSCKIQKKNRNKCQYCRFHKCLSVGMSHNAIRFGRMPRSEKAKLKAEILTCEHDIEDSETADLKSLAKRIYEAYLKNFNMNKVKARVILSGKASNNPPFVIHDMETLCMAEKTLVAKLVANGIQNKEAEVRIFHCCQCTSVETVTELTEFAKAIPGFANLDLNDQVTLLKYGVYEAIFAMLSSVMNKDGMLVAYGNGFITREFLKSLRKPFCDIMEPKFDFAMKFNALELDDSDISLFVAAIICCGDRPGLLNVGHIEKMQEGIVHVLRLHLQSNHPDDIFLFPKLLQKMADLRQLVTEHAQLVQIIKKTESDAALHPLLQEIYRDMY

inhibition ([1]; Compound concentration 0.3 uM): 1.77%
inhibition ([1]; Compound concentration 1.0 uM): 7.87%
inhibition ([1]; Compound concentration 3.0 uM): 14.8%
inhibition [2]: 5%
inhibition [3]: 8.87%
qKD [4]: > 75 µM
inhibition [5]: 20.8%
inhibition [6]: 6%
inhibition [7]: 3%
inhibition (Rattus norvegicus): 35.6%
Ki ([8]; read-out: Ki): 637 nM
Ki ([8]; read-out: pKi (converted)): 603 nM
inhibition [9]: 9%
inhibition [10]: -1%
IC50 [11]: 5400 nM
inhibition [12]: 28.2%
inhibition [13]: 8.86%
inhibition [14]: 18%
inhibition ([15]; Compound concentration 0.3 uM): -6.97%
inhibition ([15]; Compound concentration 1.0 uM): -0.284%
inhibition [16]: 6%
inhibition ([17]; Compound concentration 1.0 uM): 45%
inhibition ([17]; Compound concentration 10.0 uM): 25%
inhibition ([18]; Compound concentration 1.0 uM): 13%
inhibition ([18]; Compound concentration 10.0 uM): 23%
inhibition [19]: 13%
inhibition [20]: -2.36%
inhibition [21]: 2%
inhibition [22]: 4%
inhibition [23]: -0.99%
inhibition [24]: 5.62%
inhibition [25]: 0.46%
inhibition ([26]; Compound concentration 1.0 uM): 34%
inhibition ([26]; Compound concentration 10.0 uM): 16%
inhibition at 10 µM [27]: 15% (not active)
inhibition [28]: 54.6%
inhibition [29]: 102%
inhibition [30]: 3%
inhibition [31]: 1.34%
inhibition [32]: 11%
inhibition [33]: 12%
Compound: COc1nc2ccc([C@@](O)(c3ccccc3)C3CCN(C(C)=O)CC3)cc2c(Cl)c1Cc1ccc(-n2cccn2)cc1 [JNJ-54119936]
